PubChem BioAssay (NCI)
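In this assay, cells in 96-well plates receive the compound at five concentrations for 48 hours. Endpoints are linearly interpolated between the surrounding concentrations. At the GI50, growth is halved. Definition used: TGI = concentration required for complete inhibition of growth.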

Experiments:
Assay in all cases: DTP human tumour cell line panel, 48 h
786-0 renal = tested on: 786-0 renal
A498 renal = tested on: A498 renal
A549 NSCLC = tested on: A549 NSCLC
ACHN renal = tested on: ACHN renal
BT-549 breast = tested on: BT-549 breast
CAKI-1 renal = tested on: CAKI-1 renal
CCRF-CEM leukemia = tested on: CCRF-CEM leukemia
COLO 205 colon = tested on: COLO 205 colon
DU-145 prostate = tested on: DU-145 prostate
HCC-2998 colon = tested on: HCC-2998 colon
HCT-116 colon = tested on: HCT-116 colon
HCT-15 colon = tested on: HCT-15 colon
HL-60(TB) leukemia = tested on: HL-60(TB) leukemia
HOP-62 NSCLC = tested on: HOP-62 NSCLC
HOP-92 NSCLC = tested on: HOP-92 NSCLC
HS 578T breast = tested on: HS 578T breast
HT29 colon = tested on: HT29 colon
IGROV1 ovarian = tested on: IGROV1 ovarian
K-562 leukemia = tested on: K-562 leukemia
KM12 colon = tested on: KM12 colon
LOX IMVI melanoma = tested on: LOX IMVI melanoma
M14 melanoma = tested on: M14 melanoma
MALME-3M melanoma = tested on: MALME-3M melanoma
MCF7 breast = tested on: MCF7 breast
MDA-MB-231 breast = tested on: MDA-MB-231 breast
MOLT-4 leukemia = tested on: MOLT-4 leukemia
NCI-H226 lung = tested on: NCI-H226 lung
NCI-H23 lung = tested on: NCI-H23 lung
NCI-H460 lung = tested on: NCI-H460 lung
NCI-H522 lung = tested on: NCI-H522 lung
NCI/ADR-RES ovarian = tested on: NCI/ADR-RES ovarian
OVCAR-3 ovarian = tested on: OVCAR-3 ovarian
OVCAR-4 ovarian = tested on: OVCAR-4 ovarian
OVCAR-5 ovarian = tested on: OVCAR-5 ovarian
OVCAR-8 ovarian = tested on: OVCAR-8 ovarian
PC-3 prostate = tested on: PC-3 prostate
RPMI-8226 leukemia = tested on: RPMI-8226 leukemia
RXF 393 renal = tested on: RXF 393 renal
SF-268 CNS = tested on: SF-268 CNS
SF-295 CNS = tested on: SF-295 CNS
SF-539 CNS = tested on: SF-539 CNS
SK-MEL-2 melanoma = tested on: SK-MEL-2 melanoma
SK-MEL-28 melanoma = tested on: SK-MEL-28 melanoma
SK-MEL-5 melanoma = tested on: SK-MEL-5 melanoma
SK-OV-3 ovarian = tested on: SK-OV-3 ovarian
SN12C renal = tested on: SN12C renal
SNB-19 CNS = tested on: SNB-19 CNS
SNB-75 CNS = tested on: SNB-75 CNS
SR leukemia = tested on: SR leukemia
SW-620 colon = tested on: SW-620 colon
T-47D breast = tested on: T-47D breast
TK-10 renal = tested on: TK-10 renal
U251 CNS = tested on: U251 CNS
UACC-257 melanoma = tested on: UACC-257 melanoma
UACC-62 melanoma = tested on: UACC-62 melanoma
UO-31 renal = tested on: UO-31 renal

Question: Which results are given for `COc1ccc(-c2noc(N)c2-c2cc(OC)c3c(c2)OCO3)cc1`?
Answer: GI50 (786-0 renal): 8.36 µM; TGI (786-0 renal): > 100 µM; GI50 (A498 renal): 1.24 µM; TGI (A498 renal): 7.55 µM; GI50 (A549 NSCLC): 3.13 µM; TGI (A549 NSCLC): > 100 µM; GI50 (ACHN renal): 6.88 µM; TGI (ACHN renal): > 100 µM; GI50 (BT-549 breast): 3.01 µM; TGI (BT-549 breast): 61.9 µM; GI50 (CAKI-1 renal): 3.21 µM; TGI (CAKI-1 renal): > 100 µM; GI50 (CCRF-CEM leukemia): 1.45 µM; TGI (CCRF-CEM leukemia): > 35.8 µM; GI50 (COLO 205 colon): 2.34 µM; TGI (COLO 205 colon): 9.41 µM; GI50 (DU-145 prostate): 3.42 µM; TGI (DU-145 prostate): > 90.9 µM; GI50 (HCC-2998 colon): 3.68 µM; TGI (HCC-2998 colon): > 33.9 µM; GI50 (HCT-116 colon): 2.4 µM; TGI (HCT-116 colon): > 48.3 µM; GI50 (HCT-15 colon): 0.616 µM; TGI (HCT-15 colon): > 100 µM; GI50 (HL-60(TB) leukemia): 1.64 µM; TGI (HL-60(TB) leukemia): 7.6 µM; GI50 (HOP-62 NSCLC): 3.19 µM; TGI (HOP-62 NSCLC): > 100 µM; GI50 (HOP-92 NSCLC): 2.47 µM; TGI (HOP-92 NSCLC): 76.8 µM; GI50 (HS 578T breast): 2.61 µM; TGI (HS 578T breast): 24.4 µM; GI50 (HT29 colon): 1.39 µM; TGI (HT29 colon): > 35.5 µM; GI50 (IGROV1 ovarian): 6.8 µM; TGI (IGROV1 ovarian): > 100 µM; GI50 (K-562 leukemia): 0.405 µM; TGI (K-562 leukemia): > 100 µM; GI50 (KM12 colon): 1.97 µM; TGI (KM12 colon): > 100 µM; GI50 (LOX IMVI melanoma): 4.02 µM; TGI (LOX IMVI melanoma): > 100 µM; GI50 (M14 melanoma): 1.3 µM; TGI (M14 melanoma): 7.02 µM; GI50 (MALME-3M melanoma): 9.66 µM; TGI (MALME-3M melanoma): > 100 µM; GI50 (MCF7 breast): 0.707 µM; TGI (MCF7 breast): > 100 µM; GI50 (MDA-MB-231 breast): 2.76 µM; TGI (MDA-MB-231 breast): 60.9 µM; GI50 (MOLT-4 leukemia): 1.98 µM; TGI (MOLT-4 leukemia): > 64.1 µM; GI50 (NCI-H226 lung): 18 µM; TGI (NCI-H226 lung): > 100 µM; GI50 (NCI-H23 lung): 3.17 µM; TGI (NCI-H23 lung): > 83.1 µM; GI50 (NCI-H460 lung): 3.13 µM; TGI (NCI-H460 lung): 28 µM; GI50 (NCI-H522 lung): 1.24 µM; GI50 (NCI/ADR-RES ovarian): 0.721 µM; GI50 (OVCAR-3 ovarian): 2.53 µM; TGI (OVCAR-3 ovarian): 12.9 µM; GI50 (OVCAR-4 ovarian): 24.3 µM; TGI (OVCAR-4 ovarian): > 100 µM; GI50 (OVCAR-5 ovarian): 5.63 µM; TGI (OVCAR-5 ovarian): > 82.2 µM; GI50 (OVCAR-8 ovarian): 3.98 µM; TGI (OVCAR-8 ovarian): > 100 µM; GI50 (PC-3 prostate): 3.36 µM; TGI (PC-3 prostate): > 100 µM; GI50 (RPMI-8226 leukemia): 3.25 µM; TGI (RPMI-8226 leukemia): > 49.9 µM; GI50 (RXF 393 renal): 2.6 µM; TGI (RXF 393 renal): 15 µM; GI50 (SF-268 CNS): 5.47 µM; TGI (SF-268 CNS): 98.9 µM; GI50 (SF-295 CNS): 2.64 µM; TGI (SF-295 CNS): 28.6 µM; GI50 (SF-539 CNS): 1.76 µM; TGI (SF-539 CNS): 4.91 µM; GI50 (SK-MEL-2 melanoma): 1.51 µM; TGI (SK-MEL-2 melanoma): 6.83 µM; GI50 (SK-MEL-28 melanoma): 6.31 µM; TGI (SK-MEL-28 melanoma): > 100 µM; GI50 (SK-MEL-5 melanoma): 3.14 µM; TGI (SK-MEL-5 melanoma): 21.2 µM; GI50 (SK-OV-3 ovarian): 4.54 µM; TGI (SK-OV-3 ovarian): > 38.3 µM; GI50 (SN12C renal): 4.14 µM; TGI (SN12C renal): > 100 µM; GI50 (SNB-19 CNS): 10.6 µM; TGI (SNB-19 CNS): > 100 µM; GI50 (SNB-75 CNS): 1.74 µM; TGI (SNB-75 CNS): 7.03 µM; GI50 (SR leukemia): 0.523 µM; TGI (SR leukemia): > 51.2 µM; GI50 (SW-620 colon): 0.677 µM; TGI (SW-620 colon): > 100 µM; GI50 (T-47D breast): 3.61 µM; TGI (T-47D breast): > 54.8 µM; GI50 (TK-10 renal): 7.8 µM; TGI (TK-10 renal): > 100 µM; GI50 (U251 CNS): 3.7 µM; TGI (U251 CNS): > 100 µM; GI50 (UACC-257 melanoma): 5.87 µM; TGI (UACC-257 melanoma): > 100 µM; GI50 (UACC-62 melanoma): 4.22 µM; TGI (UACC-62 melanoma): > 100 µM; GI50 (UO-31 renal): 7.39 µM; TGI (UO-31 renal): > 100 µM
